Assay results as given in ChEMBL document CHEMBL4483862, “Open-source discovery of chemical leads for next-generation chemoprotective antimalarials” (2018).

Tested on: Plasmodium berghei
Assay: Luciferase/luciferin-expressing antifolate-resistant parasites were used to infect a culture of HepG2 cells that were pre-incubated with compounds. Infected hepatocytes emit light due to the luciferase reaction. Assay results are presented as the percent inhibition of light emission compared to control. […]
Format: functional
Details: sporozoite; for IC90: read-out: LUCIFERASE INFECTION ASSAY - IC90
[1] = read-out: LUCIFERASE INFECTION ASSAY - IC50

Cc1cn2nc(N(C)Cc3ccc(N(C)C)cc3)sc2n1
IC50 (HEPG2TOX_HILL_SLOPE 9.75, HEPG2TOX_R_SQUARED 0.561, PBLUC_HILL_SLOPE 7.25, PBLUC_R_SQUARED 0.0375, read-out: LUCIFERASE INFECTION ASSAY - IC50): 7.97 µM
IC90: > 10 µM

C=CCn1c(SCc2ccccn2)nc2sccc2c1=O
IC50 (HEPG2TOX_HILL_SLOPE 8.76, HEPG2TOX_R_SQUARED 0.722, PBLUC_HILL_SLOPE 2.66, PBLUC_R_SQUARED 0.469, read-out: LUCIFERASE INFECTION ASSAY - IC50): 8.34 µM
IC90: > 10 µM

C=S(NC(=O)c1ccc(Cl)cc1)c1sc(C(=O)OCC)c2c1C(=O)CCC2 (stereo not given)
IC50 (PBLUC_HILL_SLOPE 23.8, PBLUC_R_SQUARED 0.121, read-out: LUCIFERASE INFECTION ASSAY - IC50): > 7.78 µM
IC90: > 7.78 µM

O=C1CC(c2ccccc2Br)c2c(ccc3ccccc23)N1 (stereo not given)
IC50 (HEPG2TOX_HILL_SLOPE 2.07, HEPG2TOX_R_SQUARED 0.801, PBLUC_HILL_SLOPE 1.69, PBLUC_R_SQUARED 0.513, read-out: LUCIFERASE INFECTION ASSAY - IC50): 4.97 µM
IC90: > 9.37 µM

Oc1cccc(-c2cnc3cnc(-c4cccnc4)cn23)c1
IC50 (PBLUC_HILL_SLOPE 14.9, PBLUC_R_SQUARED 0.072, read-out: LUCIFERASE INFECTION ASSAY - IC50): 10.8 µM
IC90: > 11.4 µM

N=C(NOC(=O)Nc1ccc(OC(F)(F)F)cc1)c1cnccn1
IC50 [1]: > 9.67 µM
IC90: > 9.67 µM

CCN1C(=O)N(Cc2cccc(OC)c2)C(=O)C12CCN(Cc1cc3ccccc3s1)CC2
IC50 (HEPG2TOX_HILL_SLOPE 3.09, HEPG2TOX_R_SQUARED 0.881, PBLUC_HILL_SLOPE 9.24, PBLUC_R_SQUARED 0.267, read-out: LUCIFERASE INFECTION ASSAY - IC50): 6.06 µM
IC90: > 7.12 µM

CC(=O)Nc1cccc(-c2ccc3ncc(-c4cccs4)n3n2)c1
IC50 (HEPG2TOX_HILL_SLOPE 0.699, HEPG2TOX_R_SQUARED 0.927, PBLUC_HILL_SLOPE 0.967, PBLUC_R_SQUARED 0.554, read-out: LUCIFERASE INFECTION ASSAY - IC50): 2.81 µM
IC90: > 10 µM

CS(=O)(=O)c1nc2ccccc2n1Cc1cc(=O)n2ccccc2n1
IC50 (PBLUC_HILL_SLOPE 1.24, PBLUC_R_SQUARED 0.679, read-out: LUCIFERASE INFECTION ASSAY - IC50): 5.51 µM
IC90: > 10 µM

Cc1ccc(Br)c(NS(=O)(=O)c2cccc(C(=O)Nc3cccc4c[nH]nc34)c2)c1
IC50 (FFLUC_HILL_SLOPE 12.1, FFLUC_R_SQUARED 0.239, PBLUC_HILL_SLOPE 20.2, PBLUC_R_SQUARED 0.144, read-out: LUCIFERASE INFECTION ASSAY - IC50): 9.98 µM
IC90: > 10 µM

CCOC(=O)N1CCC(Nc2ncnc3c2oc2ccccc23)CC1
IC50 (PBLUC_HILL_SLOPE 2.64, PBLUC_R_SQUARED 0.787, read-out: LUCIFERASE INFECTION ASSAY - IC50): 6.72 µM
IC90: > 10 µM

O=C(Nc1ncccc1O)c1csc(COc2ccc(Cl)cc2)n1
IC50 (HEPG2TOX_HILL_SLOPE 10.3, HEPG2TOX_R_SQUARED 0.899, PBLUC_HILL_SLOPE 4.56, PBLUC_R_SQUARED 0.315, read-out: LUCIFERASE INFECTION ASSAY - IC50): 4.88 µM
IC90: 7.89 µM

Oc1c(Cl)cc(Cl)cc1C1Nc2cc(Cl)c(C(F)(F)F)cc2N1 (stereo not given)
IC50 (HEPG2TOX_HILL_SLOPE 1.05, HEPG2TOX_R_SQUARED 0.96, PBLUC_HILL_SLOPE 13.2, PBLUC_R_SQUARED 0.588, read-out: LUCIFERASE INFECTION ASSAY - IC50): 0.108 µM
IC90: 0.127 µM

CN1CCN(c2ccc(CNS(=O)(=O)c3cccs3)cn2)CC1
IC50 [1]: > 2 µM
IC90: > 2 µM

Nc1ccccc1SC(CC(=O)c1ccccc1)c1ccc([N+](=O)[O-])cc1 (stereo not given)
IC50 (PBLUC_HILL_SLOPE 4.35, PBLUC_R_SQUARED 0.338, read-out: LUCIFERASE INFECTION ASSAY - IC50): 8.12 µM
IC90: > 8.72 µM

Cc1nc2ccccc2n1CCC(=O)Nc1ccc2ccccc2c1
IC50 (PBLUC_HILL_SLOPE 2.97, PBLUC_R_SQUARED 0.444, read-out: LUCIFERASE INFECTION ASSAY - IC50): 7.73 µM
IC90: > 10 µM

O=C1Nc2ccccc2/C1=C/c1cccn1-c1ccc(C(F)(F)F)cc1
IC50 (PBLUC_HILL_SLOPE 2.37, PBLUC_R_SQUARED 0.071, read-out: LUCIFERASE INFECTION ASSAY - IC50): 5.82 µM
IC90: > 9.31 µM

Cn1c(Sc2cnc(SCc3ccc(Cl)cc3)nc2-c2ccccc2)nnc1C(F)(F)F
IC50 [1]: > 6.68 µM
IC90: > 6.68 µM

Cc1onc(-c2c(Cl)cccc2Cl)c1C(=O)Nc1ccccc1SCc1noc(-c2cccs2)n1
IC50 (FFLUC_HILL_SLOPE 4.47, FFLUC_R_SQUARED 0.309, read-out: LUCIFERASE INFECTION ASSAY - IC50): > 6.07 µM
IC90: > 6.07 µM

CCOC(=O)c1[nH]c(C)c(C(=O)CN(C)S(=O)(=O)c2c(C)noc2C)c1C
IC50 (PBLUC_HILL_SLOPE 16.9, PBLUC_R_SQUARED 0.509, read-out: LUCIFERASE INFECTION ASSAY - IC50): 3.28 µM
IC90: 3.73 µM

Cc1ccccc1NC(=O)c1cc2ccccc2c(CN2CCC3(CC2)OCCO3)c1O
IC50 (FFLUC_HILL_SLOPE 10.9, FFLUC_R_SQUARED 0.858, HEPG2TOX_HILL_SLOPE 2.82, HEPG2TOX_R_SQUARED 0.87, PBLUC_HILL_SLOPE 1.78, PBLUC_R_SQUARED 0.84, read-out: LUCIFERASE INFECTION ASSAY - IC50): 0.373 µM
IC90: 1.28 µM

Cc1ccc(Nc2cc(C)nc3c(-c4ccccc4)cnn23)cc1
IC50 (FFLUC_HILL_SLOPE 0.324, FFLUC_R_SQUARED 0.749, HEPG2TOX_HILL_SLOPE 3.12, HEPG2TOX_R_SQUARED 0.973, read-out: LUCIFERASE INFECTION ASSAY - IC50): > 10.5 µM
IC90: > 10.5 µM

O=C1C(=C2SCCCS2)CC/C1=C\c1ccccc1
IC50 (FFLUC_HILL_SLOPE 1.05, FFLUC_R_SQUARED 0.81, PBLUC_HILL_SLOPE 0.851, PBLUC_R_SQUARED 0.668, read-out: LUCIFERASE INFECTION ASSAY - IC50): 0.433 µM
IC90: 5.73 µM

COc1ccc(-n2cc(-c3ccccc3)c3c(NCc4cccnc4)ncnc32)cc1
IC50 [1]: > 10 µM
IC90: > 10 µM

Cc1ccc2c(c1)s/c(=N/C(=O)c1cccs1)n2C
IC50 [1]: 2.27 µM
IC90: > 10 µM

CCOC(=O)c1c(C)noc1/C(C)=N/OC(=O)Nc1cccc(C(F)(F)F)c1
IC50 (FFLUC_HILL_SLOPE 1.36, FFLUC_R_SQUARED 0.14, PBLUC_HILL_SLOPE 8.59, PBLUC_R_SQUARED 0.59, read-out: LUCIFERASE INFECTION ASSAY - IC50): 3.08 µM
IC90: 3.98 µM

CC1CCc2c(sc3nc(Sc4nnnn4-c4ccccc4)nc(N)c23)C1 (stereo not given)
IC50 (PBLUC_HILL_SLOPE 2.12, PBLUC_R_SQUARED 0.375, read-out: LUCIFERASE INFECTION ASSAY - IC50): 3.69 µM
IC90: > 10 µM

N#Cc1ccsc1NC(=O)CN1CCN(CC(=O)Nc2ccc(Cl)c(C(F)(F)F)c2)CC1
IC50 (PBLUC_HILL_SLOPE 1.73, PBLUC_R_SQUARED 0.28, read-out: LUCIFERASE INFECTION ASSAY - IC50): 5.03 µM
IC90: > 10 µM

CC(C)(C)C(=O)CC(=O)Nc1ccc(C(F)(F)F)cc1
IC50 (FFLUC_HILL_SLOPE 0.143, FFLUC_R_SQUARED 0.0864, PBLUC_HILL_SLOPE 0.817, PBLUC_R_SQUARED 0.0775, read-out: LUCIFERASE INFECTION ASSAY - IC50): > 11.5 µM
IC90: > 11.5 µM

CCNC(=O)c1cccc(Nc2nc(C(F)(F)F)nc3ccccc23)c1
IC50 [1]: > 10 µM
IC90: > 10 µM

CCc1c(C(=O)/C=C/c2cccc(C#N)c2)oc2ccccc12
IC50 (FFLUC_HILL_SLOPE 2.17, FFLUC_R_SQUARED 0.174, HEPG2TOX_HILL_SLOPE 14.7, HEPG2TOX_R_SQUARED 0.793, PBLUC_HILL_SLOPE 2.78, PBLUC_R_SQUARED 0.439, read-out: LUCIFERASE INFECTION ASSAY - IC50): 4.09 µM
IC90: 9.02 µM

Cc1c(Cl)cccc1N=C(SCC(=O)N1CCCCCC1)C(C#N)c1nc2ccccc2s1 (stereo not given)
IC50 (HEPG2TOX_HILL_SLOPE 5.36, HEPG2TOX_R_SQUARED 0.816, PBLUC_HILL_SLOPE 12.3, PBLUC_R_SQUARED 0.271, read-out: LUCIFERASE INFECTION ASSAY - IC50): 8.92 µM
IC90: > 10 µM

O=C1OCCC1Sc1nc(-c2ccccc2)c(-c2ccccc2)o1 (stereo not given)
IC50 (PBLUC_HILL_SLOPE 0.774, PBLUC_R_SQUARED 0.522, read-out: LUCIFERASE INFECTION ASSAY - IC50): 4.13 µM
IC90: > 9.78 µM

CC(C)S(=O)(=O)c1cnc(N2CCCCC2)nc1N
IC50 [1]: > 11.6 µM
IC90: > 11.6 µM

Cc1ccc(NC(=O)Nc2ccc(Cl)c(Cl)c2)nc1
IC50 (PBLUC_HILL_SLOPE 3.93, PBLUC_R_SQUARED 0.477, read-out: LUCIFERASE INFECTION ASSAY - IC50): 5.48 µM
IC90: 9.58 µM

COc1ccc(O)c(C(=O)c2cnc(Nc3nc(C)c4ccccc4n3)nc2)c1
IC50 (FFLUC_HILL_SLOPE 8.56, FFLUC_R_SQUARED 0.251, read-out: LUCIFERASE INFECTION ASSAY - IC50): > 10 µM
IC90: > 10 µM

COc1ccc(OCCN2CCN(C(C)C(=O)Nc3sccc3C(N)=O)CC2)cc1 (stereo not given)
IC50 [1]: > 10 µM
IC90: > 10 µM

c1ccc(C(Nc2ncnc3sccc23)c2ccco2)cc1 (stereo not given)
IC50 (PBLUC_HILL_SLOPE 17.3, PBLUC_R_SQUARED 0.0145, read-out: LUCIFERASE INFECTION ASSAY - IC50): 8.98 µM
IC90: > 10 µM

COc1ccccc1CN1C(=O)C=CC1=O
IC50 (HEPG2TOX_HILL_SLOPE 11.1, HEPG2TOX_R_SQUARED 0.957, PBLUC_HILL_SLOPE 12.9, PBLUC_R_SQUARED 0.465, read-out: LUCIFERASE INFECTION ASSAY - IC50): 13.8 µM
IC90: > 15.2 µM

CNc1nnc(Sc2ncnc3ccsc23)s1
IC50 (PBLUC_HILL_SLOPE 11, PBLUC_R_SQUARED 0.35, read-out: LUCIFERASE INFECTION ASSAY - IC50): 7.71 µM
IC90: 9.41 µM
